Experimental data taken from PubChem BioAssay (NCI).
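Grown in 96-well plates, cells were treated for 48 hours with each compound at five concentrations. Insufficient inhibition: endpoint recorded as highest concentration tested. The concentration for 50% growth inhibition is given as GI50. TGI: total growth inhibition.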

How the values were obtained:
Test in all cases: growth of human tumour cells (NCI), 48 h
[1] = system: 786-0 renal
[2] = system: A498 renal
[3] = system: ACHN renal
[4] = system: BT-549 breast
[5] = system: CAKI-1 renal
[6] = system: CCRF-CEM leukemia
[7] = system: COLO 205 colon
[8] = system: DU-145 prostate
[9] = system: EKVX NSCLC
[10] = system: HCC-2998 colon
[11] = system: HCT-116 colon
[12] = system: HCT-15 colon
[13] = system: HL-60(TB) leukemia
[14] = system: HOP-62 NSCLC
[15] = system: HOP-92 NSCLC
[16] = system: HS 578T breast
[17] = system: HT29 colon
[18] = system: IGROV1 ovarian
[19] = system: K-562 leukemia
[20] = system: KM12 colon
[21] = system: LOX IMVI melanoma
[22] = system: M14 melanoma
[23] = system: MALME-3M melanoma
[24] = system: MCF7 breast
[25] = system: MDA-MB-231 breast
[26] = system: MDA-MB-435
[27] = system: MOLT-4 leukemia
[28] = system: NCI-H226 lung
[29] = system: NCI-H23 lung
[30] = system: NCI-H460 lung
[31] = system: NCI-H522 lung
[32] = system: NCI/ADR-RES ovarian
[33] = system: OVCAR-3 ovarian
[34] = system: OVCAR-4 ovarian
[35] = system: OVCAR-5 ovarian
[36] = system: OVCAR-8 ovarian
[37] = system: PC-3 prostate
[38] = system: RPMI-8226 leukemia
[39] = system: RXF 393 renal
[40] = system: SF-268 CNS
[41] = system: SF-295 CNS
[42] = system: SF-539 CNS
[43] = system: SK-MEL-2 melanoma
[44] = system: SK-MEL-28 melanoma
[45] = system: SK-MEL-5 melanoma
[46] = system: SK-OV-3 ovarian
[47] = system: SN12C renal
[48] = system: SNB-19 CNS
[49] = system: SNB-75 CNS
[50] = system: SR leukemia
[51] = system: SW-620 colon
[52] = system: T-47D breast
[53] = system: TK-10 renal
[54] = system: U251 CNS
[55] = system: UACC-257 melanoma
[56] = system: UO-31 renal
[57] = system: A549 NSCLC
[58] = system: UACC-62 melanoma

Work on Cc1cc(C)c2c(N)c3cccc(C)c3nc2n1 yielded a GI50 [1] of 2.35 µM, a TGI [1] of 8.47 µM and a GI50 [2] of 1.48 µM. The TGI [2] was 3.11 µM, the GI50 [3] was 0.852 µM and the TGI [3] was 5.08 µM. It also gave a GI50 [4] of 3.48 µM, a TGI [4] of 20.2 µM and a GI50 [5] of 2.25 µM. The TGI [5] was 8.35 µM, the GI50 [6] was 3.84 µM and the TGI [6] was 17 µM. It also gave a GI50 [7] of 0.702 µM, a TGI [7] of 2.17 µM and a GI50 [8] of 2.33 µM. For the same compound, the TGI [8] was 6.5 µM, the GI50 [9] was 3.17 µM and the TGI [9] was 33.5 µM. For the same compound, the GI50 [10] was 1.94 µM, the TGI [10] was 4.92 µM and the GI50 [11] was 0.667 µM. For the same compound, the TGI [11] was 3.85 µM, the GI50 [12] was 1.76 µM and the TGI [12] was 6.5 µM. It also gave a GI50 [13] of 3.67 µM, a TGI [13] of 16.4 µM and a GI50 [14] of 1.81 µM. The TGI [14] was 5.03 µM, the GI50 [15] was 2.24 µM and the TGI [15] was 6.96 µM. The GI50 [16] was 3.25 µM, the TGI [16] was 25.1 µM and the GI50 [17] was 0.994 µM. The TGI [17] was 5.27 µM, the GI50 [18] was 3.17 µM and the TGI [18] was over 100 µM. For the same compound, the GI50 [19] was 2.36 µM, the TGI [19] was 8.71 µM and the GI50 [20] was 3.32 µM. The TGI [20] was 9.69 µM, the GI50 [21] was 1.7 µM and the TGI [21] was 4.62 µM. It also gave a GI50 [22] of 1.58 µM, a TGI [22] of 3.24 µM and a GI50 [23] of 1.93 µM. It also gave a TGI [23] of 4.38 µM, a GI50 [24] of 2.14 µM and a TGI [24] of 10.3 µM. For the same compound, the GI50 [25] was 1.56 µM, the TGI [25] was 6.27 µM and the GI50 [26] was 2.26 µM. For the same compound, the TGI [26] was 8.62 µM, the GI50 [27] was 2.17 µM and the TGI [27] was 10 µM. The GI50 [28] was 1.2 µM, the TGI [28] was 4.49 µM and the GI50 [29] was 1.59 µM. The TGI [29] was 3.96 µM, the GI50 [30] was 1.4 µM and the TGI [30] was 4.22 µM. For the same compound, the GI50 [31] was 2.61 µM, the TGI [31] was 9.7 µM and the GI50 [32] was 1.54 µM. The TGI [32] was 3.99 µM, the GI50 [33] was 2.57 µM and the TGI [33] was 5.46 µM. The GI50 [34] was 2.29 µM, the TGI [34] was 8.1 µM and the GI50 [35] was 2.1 µM. It also gave a TGI [35] of 5.71 µM, a GI50 [36] of 1.55 µM and a TGI [36] of 14.8 µM. The GI50 [37] was 2.44 µM, the TGI [37] was 7.61 µM and the GI50 [38] was 2.14 µM. The TGI [38] was 6.78 µM, the GI50 [39] was 1.64 µM and the TGI [39] was 3.57 µM. For the same compound, the GI50 [40] was 2.15 µM, the TGI [40] was 6.3 µM and the GI50 [41] was 1.44 µM. The TGI [41] was 8.07 µM, the GI50 [42] was 1.61 µM and the TGI [42] was 5.01 µM. For the same compound, the GI50 [43] was 2.03 µM, the TGI [43] was 4.97 µM and the GI50 [44] was 3.86 µM. For the same compound, the TGI [44] was 15.9 µM, the GI50 [45] was 1.44 µM and the TGI [45] was 2.74 µM. It also gave a GI50 [46] of 2.11 µM, a TGI [46] of 9.36 µM and a GI50 [47] of 1.61 µM. The TGI [47] was 11.2 µM, the GI50 [48] was 2.21 µM and the TGI [48] was 8.73 µM. The GI50 [49] was 1.83 µM, the TGI [49] was 6.63 µM and the GI50 [50] was 0.703 µM. It also gave a TGI [50] of 3.94 µM, a GI50 [51] of 1.94 µM and a TGI [51] of 9.29 µM. The GI50 [52] was 2.03 µM, the TGI [52] was 6.25 µM and the GI50 [53] was 1.83 µM. For the same compound, the TGI [53] was 7.05 µM, the GI50 [54] was 2.47 µM and the TGI [54] was 10.6 µM. For the same compound, the GI50 [55] was 2.15 µM, the TGI [55] was 4.45 µM and the GI50 [56] was 1.9 µM. For the same compound, the TGI [56] was 59.6 µM.

With COc1cc2c(cc1OC)-c1c(c3ccc([N+](=O)[O-])cc3c(=O)n1CCCN)C2=O the GI50 [1] was 0.716 µM, the TGI [1] was 1.84 µM and the GI50 [2] was 6.27 µM. The TGI [2] was 13.2 µM, the GI50 [57] was 0.395 µM and the TGI [57] was 1.68 µM. It also gave a GI50 [3] of 0.242 µM, a TGI [3] of 4.04 µM and a GI50 [4] of 1.79 µM. The TGI [4] was 4.49 µM, the GI50 [5] was 0.658 µM and the TGI [5] was 9.16 µM. It also gave a GI50 [6] of 0.495 µM, a TGI [6] of 2.4 µM and a GI50 [7] of 1.83 µM. It also gave a TGI [7] of 8.85 µM, a GI50 [8] of 0.684 µM and a TGI [8] of 1.37 µM. For the same compound, the GI50 [9] was 7.75 µM, the TGI [9] was 18.3 µM and the GI50 [10] was 0.0818 µM. The TGI [10] was 0.759 µM, the GI50 [11] was 0.57 µM and the TGI [11] was 1.46 µM. For the same compound, the GI50 [12] was 1.3 µM, the TGI [12] was 3.66 µM and the GI50 [13] was 1.28 µM. For the same compound, the TGI [13] was 3.38 µM, the GI50 [14] was 1.28 µM and the TGI [14] was 8.24 µM. The GI50 [15] was 7.29 µM, the TGI [15] was 16.5 µM and the GI50 [16] was 9.12 µM. For the same compound, the TGI [16] was 20.2 µM, the GI50 [17] was 0.531 µM and the TGI [17] was 1.12 µM. It also gave a GI50 [18] of 0.306 µM, a TGI [18] of 8.29 µM and a GI50 [19] of 0.955 µM. The TGI [19] was 2.65 µM, the GI50 [20] was 2.1 µM and the TGI [20] was 4.92 µM. It also gave a GI50 [21] of 0.325 µM, a TGI [21] of 1.17 µM and a GI50 [22] of 0.00971 µM. The TGI [22] was 1.57 µM, the GI50 [23] was 5.31 µM and the TGI [23] was 16.4 µM. For the same compound, the GI50 [24] was 0.0545 µM, the TGI [24] was 7.09 µM and the GI50 [25] was 0.521 µM. It also gave a TGI [25] of 1.54 µM, a GI50 [26] of 7.23 µM and a TGI [26] of 15.4 µM. For the same compound, the GI50 [27] was 0.165 µM, the TGI [27] was 1.6 µM and the GI50 [28] was 3.61 µM. The TGI [28] was 12.1 µM, the GI50 [29] was 0.548 µM and the TGI [29] was 1.55 µM. The GI50 [30] was 0.403 µM, the TGI [30] was 8.97 µM and the GI50 [31] was 0.0615 µM. It also gave a TGI [31] of 4.22 µM, a GI50 [32] of 0.342 µM and a TGI [32] of 2.87 µM. For the same compound, the GI50 [33] was 8.42 µM, the TGI [33] was 18.4 µM and the GI50 [34] was 1.07 µM. It also gave a TGI [34] of 2.72 µM, a GI50 [35] of 3.46 µM and a TGI [35] of 9.54 µM. For the same compound, the GI50 [36] was 1.01 µM, the TGI [36] was 4.49 µM and the GI50 [37] was 6.1 µM. For the same compound, the TGI [37] was 12.3 µM, the GI50 [38] was 0.812 µM and the TGI [38] was 3.52 µM. The GI50 [39] was 1.21 µM, the TGI [39] was 4.12 µM and the GI50 [40] was 1.4 µM. The TGI [40] was 12.3 µM, the GI50 [41] was 0.0566 µM and the TGI [41] was 10.5 µM. For the same compound, the GI50 [42] was 0.124 µM, the TGI [42] was 1.29 µM and the GI50 [43] was 5.95 µM. It also gave a TGI [43] of 14.1 µM, a GI50 [44] of 7.25 µM and a TGI [44] of 15.3 µM. The GI50 [45] was 2.5 µM, the TGI [45] was 8.47 µM and the GI50 [46] was 8.81 µM. For the same compound, the TGI [46] was 20.2 µM, the GI50 [47] was 0.695 µM and the TGI [47] was 6.82 µM. It also gave a GI50 [48] of 0.944 µM, a TGI [48] of 5.9 µM and a GI50 [50] of 0.0386 µM. It also gave a TGI [50] of 0.346 µM, a GI50 [51] of 0.491 µM and a TGI [51] of 5.92 µM. The GI50 [52] was 0.271 µM, the TGI [52] was 8.47 µM and the GI50 [53] was 7.24 µM. For the same compound, the TGI [53] was 17.1 µM, the GI50 [54] was 0.267 µM and the TGI [54] was 1.05 µM. For the same compound, the GI50 [55] was 6.79 µM, the TGI [55] was 14.6 µM and the GI50 [58] was 1.95 µM. It also gave a TGI [58] of 10.8 µM, a GI50 [56] of 0.351 µM and a TGI [56] of 3.59 µM.
